Reference: ChEMBL document CHEMBL2163273, “Orally active adenosine A(1) receptor agonists with antinociceptive effects in mice” (J Med Chem, 2012)
Each block holds one compound with its values, some of them ahead of it. The source made the active and inactive calls. The calls are words filed in the database; no cut-off is given here.

Assays:
Adenosine receptor A1 [1] = target: T1, Adenosine receptor A1 (Homo sapiens, UniProt P30542); test: Agonist activity at human A1AR expressed in HEK293T/17 cells assessed as inhibition of isoproterenol-induced cAMP accumulation incubated for 10 mins by luciferase reporter assay; assay type: functional, cell-based, HEK-293T
T1 sequence (P30542 whole entry): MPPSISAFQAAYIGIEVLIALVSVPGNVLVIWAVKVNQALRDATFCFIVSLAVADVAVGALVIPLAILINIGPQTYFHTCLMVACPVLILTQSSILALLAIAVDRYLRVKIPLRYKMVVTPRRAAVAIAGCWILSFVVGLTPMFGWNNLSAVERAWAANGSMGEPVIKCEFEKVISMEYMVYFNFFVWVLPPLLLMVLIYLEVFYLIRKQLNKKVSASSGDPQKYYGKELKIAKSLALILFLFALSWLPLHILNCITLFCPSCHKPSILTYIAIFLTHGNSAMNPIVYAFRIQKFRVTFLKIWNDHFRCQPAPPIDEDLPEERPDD

Adenosine receptor A1 [2] = target: T1, Adenosine receptor A1; test: Agonist activity at human A1AR expressed in HEK293T/17 cells assessed as inhibition of forskolin-induced cAMP accumulation incubated for 10 mins by luciferase reporter assay; assay type: functional, cell-based, HEK-293T
Mus musculus [3] = test: Cardiovascular toxicity in C57BL/6 mouse assessed as change in heart rate at 5000 nmol/kg, po; assay type: organism-based; details: in vivo
Mus musculus [4] = test: Antinociceptive effect in A1AR knock out C57BL/6 mouse assessed as inhibition of noxious thermal sensitivity by measuring paw withdrawal latency at 5 nmol/kg, it; assay type: functional, organism-based
[5] = target: T2, Adenosine receptor A2b (Homo sapiens) (UniProt P29275); test: Displacement of [3H]2-chloro-N6-cyclopentyladenosine from human A2BR at 50 uM
T2 sequence (whole entry): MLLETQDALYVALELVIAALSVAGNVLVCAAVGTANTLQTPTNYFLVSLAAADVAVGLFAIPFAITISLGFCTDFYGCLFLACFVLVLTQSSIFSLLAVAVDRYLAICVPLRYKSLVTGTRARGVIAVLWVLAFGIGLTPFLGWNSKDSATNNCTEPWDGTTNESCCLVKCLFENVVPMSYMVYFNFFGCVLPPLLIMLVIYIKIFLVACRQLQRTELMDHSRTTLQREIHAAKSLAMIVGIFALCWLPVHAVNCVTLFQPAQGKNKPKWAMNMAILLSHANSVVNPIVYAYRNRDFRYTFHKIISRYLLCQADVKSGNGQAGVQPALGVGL

Mus musculus [6] = test: Cardiovascular toxicity in A1AR knock out C57BL/6 mouse assessed as change in heart rate at 5000 nmol/kg, po; assay type: organism-based; details: in vivo
Homo sapiens [7] = species on record: Homo sapiens; test: Selectivity ratio of Ki for human A3AR to Ki for human A1AR
Adenosine receptor A2a = Adenosine receptor A2a (Homo sapiens, UniProt P29274); test: Displacement of [3H]2-chloro-N6-cyclopentyladenosine from human A2AR
Chain of Adenosine receptor A2a (P29274 whole entry): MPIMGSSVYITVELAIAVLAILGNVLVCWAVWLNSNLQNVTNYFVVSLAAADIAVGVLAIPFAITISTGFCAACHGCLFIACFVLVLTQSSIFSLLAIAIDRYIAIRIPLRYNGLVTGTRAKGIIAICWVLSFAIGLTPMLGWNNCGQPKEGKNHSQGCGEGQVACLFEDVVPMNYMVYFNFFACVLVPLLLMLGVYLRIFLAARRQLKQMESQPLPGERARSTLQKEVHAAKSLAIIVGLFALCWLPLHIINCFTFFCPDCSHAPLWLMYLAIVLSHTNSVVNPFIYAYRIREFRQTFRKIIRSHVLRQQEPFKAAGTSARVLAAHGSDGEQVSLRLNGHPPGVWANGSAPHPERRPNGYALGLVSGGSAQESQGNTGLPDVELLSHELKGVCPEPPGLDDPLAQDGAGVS

Mus musculus [8] = test: Antinociceptive effect in orally dosed C57BL/6 mouse assessed as inhibition of noxious thermal sensitivity by measuring paw withdrawal latency; assay type: functional, organism-based
Homo sapiens [9] = species on record: Homo sapiens; test: Selectivity ratio of Ki for human A2AR to Ki for human A1AR
Mus musculus [10] = test: Antinociceptive effect in intravenously dosed C57BL/6 mouse assessed as inhibition of noxious thermal sensitivity by measuring paw withdrawal latency; assay type: functional, organism-based
Adenosine receptor A1 [11] = target: T1, Adenosine receptor A1; test: Displacement of [3H]2-chloro-N6-cyclopentyladenosine from human A1AR
Mus musculus [12] = test: Cardiovascular toxicity in A1AR knock out C57BL/6 mouse assessed as change in body temperature at 5000 nmol/kg, po; assay type: organism-based; details: in vivo
Mus musculus [13] = test: Cardiovascular toxicity in C57BL/6 mouse assessed as change in body temperature at 5000 nmol/kg, po; assay type: organism-based; details: in vivo
Mus musculus [14] = test: Antinociceptive effect in intrathecally dosed C57BL/6 mouse assessed as inhibition of noxious thermal sensitivity by measuring paw withdrawal latency; assay type: functional, organism-based
Adenosine receptor A3 = target: T3, Adenosine receptor A3 (Homo sapiens, UniProt P0DMS8); test: Displacement of [3H]2-chloro-N6-cyclopentyladenosine from human A3AR
T3 sequence (P0DMS8 whole entry): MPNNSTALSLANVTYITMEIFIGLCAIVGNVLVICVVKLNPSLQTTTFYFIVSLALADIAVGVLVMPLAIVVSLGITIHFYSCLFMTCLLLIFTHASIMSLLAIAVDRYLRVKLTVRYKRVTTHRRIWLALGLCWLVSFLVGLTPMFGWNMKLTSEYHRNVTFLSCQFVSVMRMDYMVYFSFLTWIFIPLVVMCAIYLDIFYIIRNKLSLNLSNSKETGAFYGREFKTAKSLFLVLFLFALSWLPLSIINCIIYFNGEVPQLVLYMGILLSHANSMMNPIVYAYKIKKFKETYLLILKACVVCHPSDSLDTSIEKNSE

Adenosine receptor A1 [15] = target: T1, Adenosine receptor A1; test: Agonist activity at human A1AR assessed as induction of Ca2+ ion mobilization by orthogonal functional assay
[16] = target: T2, Adenosine receptor A2b (Homo sapiens); test: Displacement of [3H]2-chloro-N6-cyclopentyladenosine from human A2BR at 10 uM

SMILES: Nc1ncnc2c1ncn2[C@@H]1O[C@H](CO)[C@@H](O)[C@H]1OP(=O)(O)O
EC50 (Adenosine receptor A1 [1]): 490 nM

SMILES: COP(=O)(OC)O[C@@H]1CCC[C@H]1Nc1nc(Cl)nc2c1ncn2[C@@H]1O[C@H](CO)[C@@H](O)[C@H]1O
EC50 (Adenosine receptor A1 [2]): > 10000 nM

SMILES: COP(=O)(OC)OC[C@H]1O[C@@H](n2cnc3c(NC4CCCC4)nc(Cl)nc32)[C@H](O)[C@@H]1O
EC50 (Adenosine receptor A1 [1]): 1400 nM | Activity (Mus musculus [3]): Non-toxic | Activity (Mus musculus [4]): inactive | inhibition [5]: 7% | Activity (Mus musculus [6]): Non-toxic | Ratio Ki (Homo sapiens [7]): 12 | Ki (Adenosine receptor A2a): 4700 nM | Activity (Mus musculus [8]): Dose-dependent effect | Ratio Ki (Homo sapiens [9]): 130 | Activity (Mus musculus [10]): Dose-dependent effect | Ki (Adenosine receptor A1 [11]): 36 nM | Activity (Mus musculus [12]): Non-toxic | Activity (Mus musculus [13]): Non-toxic | Activity (Mus musculus [14]): Dose-dependent effect | Ki (Adenosine receptor A3): 450 nM | EC50 (Adenosine receptor A1 [15]): 520 nM

SMILES: OC[C@H]1O[C@@H](n2cnc3c(NC4CCCC4)ncnc32)[C@H](O)[C@@H]1O [N6-CYCLOPENTYLADENOSINE]
Activity (Mus musculus [3]): Toxic | Activity (Mus musculus [6]): Non-toxic | Activity (Mus musculus [8]): Dose-dependent effect | Activity (Mus musculus [12]): Non-toxic | Activity (Mus musculus [13]): Toxic

SMILES: COP(=O)(OC)OCC(Cc1ccccc1)Nc1nc(Cl)nc2c1ncn2[C@@H]1O[C@H](CO)[C@@H](O)[C@H]1O (mixture of isomers)
EC50 (Adenosine receptor A1 [1]): 5400 nM

SMILES: COP(=O)(OC)OC[C@H]1O[C@@H](n2cnc3c(NC4CCCC4)ncnc32)[C@H](O)[C@@H]1O
EC50 (Adenosine receptor A1 [1]): 4400 nM

SMILES: CCOP(=O)(OCC)OC[C@H]1O[C@@H](n2cnc3c(NC4CCCC4)nc(Cl)nc32)[C@H](O)[C@@H]1O
EC50 (Adenosine receptor A1 [1]): > 10000 nM

Results, then the compound that gave them:

EC50 (Adenosine receptor A1 [2]): 5.9 nM
SMILES: OC[C@H]1O[C@@H](n2cnc3c(N[C@H]4CCC[C@@H]4O)ncnc32)[C@H](O)[C@@H]1O [GR-79236]

EC50 (Adenosine receptor A1 [1]): 1500 nM
SMILES: O=P(O)(O)OCC(Cc1ccccc1)Nc1nc(Cl)nc2c1ncn2[C@@H]1O[C@H](CO)[C@@H](O)[C@H]1O (mixture of isomers)

EC50 (Adenosine receptor A1 [1]): 72 nM | Ratio Ki (Homo sapiens [7]): 52 | Ki (Adenosine receptor A2a): 1600 nM | inhibition [16]: 0% | Ki (Adenosine receptor A1 [11]): 25 nM | Ki (Adenosine receptor A3): 1300 nM | EC50 (Adenosine receptor A1 [15]): 21 nM
SMILES: O=P(O)(O)OC[C@H]1O[C@@H](n2cnc3c(NC4CCCC4)nc(Cl)nc32)[C@H](O)[C@@H]1O

EC50 (Adenosine receptor A1 [2]): 120 nM
SMILES: O=P(O)(O)O[C@@H]1CCC[C@H]1Nc1nc(Cl)nc2c1ncn2[C@@H]1O[C@H](CO)[C@@H](O)[C@H]1O

EC50 (Adenosine receptor A1 [1]): 530 nM
SMILES: CCOC(=O)CNP(=O)(NCC(=O)OCC)OC[C@H]1O[C@@H](n2cnc3c(NC4CCCC4)nc(Cl)nc32)[C@H](O)[C@@H]1O

EC50 (Adenosine receptor A1 [1]): 500 nM
SMILES: Nc1ncnc2c1ncn2[C@@H]1O[C@H](COP(=O)(O)O)[C@@H](O)[C@H]1O [ADENOSINE PHOSPHATE]

EC50 (Adenosine receptor A1 [1]): 100 nM
SMILES: O=P(O)(O)OC[C@H]1O[C@@H](n2cnc3c(NC4CCCC4)ncnc32)[C@H](O)[C@@H]1O

EC50 (Adenosine receptor A1 [1]): 550 nM
SMILES: OCC(Cc1ccccc1)Nc1nc(Cl)nc2c1ncn2[C@@H]1O[C@H](CO)[C@@H](O)[C@H]1O (mixture of isomers)

EC50 (Adenosine receptor A1 [1]): 6100 nM
SMILES: O=P(OCCc1ccccc1)(OCCc1ccccc1)OC[C@H]1O[C@@H](n2cnc3c(NC4CCCC4)nc(Cl)nc32)[C@H](O)[C@@H]1O

EC50 (Adenosine receptor A1 [1]): 440 nM
SMILES: Nc1ncnc2c1ncn2[C@@H]1O[C@H](CO)[C@@H](OP(=O)(O)O)[C@H]1O
